Values quoted from earlier work as cited in patent US20210290548A1, “FORMULATIONS OF RALTEGRAVIR” (Merck Sharp & Dohme Corp., priority 2018, published 2021).
Like-named read-outs stand apart in the source and are kept apart here.

For `Cc1nnc(C(=O)NC(C)(C)c2nc(C(=O)NCc3ccc(F)cc3)c([O-])c(=O)n2C)o1.[K+]` [Raltegravir potassium, N-[(4-Fluorophenyl)methyl]-1,6-dihydro5-hydroxy-1-methyl-2-[1-methyl-1-[[(5-methyl-1,3,4-oxadiazol-2-yl)carbonyl]amino]ethyl]-6-oxo-4pyrimidinecarboxamide monopotassium salt], the solubility (acetonitrile) is given as “very slightly soluble”, the solubility (ethanol) is given as “very slightly soluble” and the solubility (isopropanol) is given as “insoluble”. For the same compound, the solubility (methanol) was “slightly soluble” and the solubility (water) was “soluble”.
